Test system: participants with SSc-RP
Assay: Scleroderma Health Assessment Questionnaire (SHAQ): disability indices and visual analog scales
Assay type: in vivo, human
Conditions: for SHAQ Alternative Disability Index, Mean / SHAQ Alternative Disability Index, Median / SHAQ Standard Disability Index, Mean / SHAQ Standard Disability Index, Median / SHAQ Visual Analogue Scale - Breathing Problems, Mean / SHAQ Visual Analogue Scale - Breathing Problems, Median / SHAQ Visual Analogue Scale - Finger Ulcers, Mean / SHAQ Visual Analogue Scale - Finger Ulcers, Median / SHAQ Visual Analogue Scale - Intestinal Problems, Mean / SHAQ Visual Analogue Scale - Intestinal Problems, Median / SHAQ Visual Analogue Scale - Overall Disease Severity, Mean / SHAQ Visual Analogue Scale - Overall Disease Severity, Median / SHAQ Visual Analogue Scale - Pain, Mean / SHAQ Visual Analogue Scale - Pain, Median / SHAQ Visual Analogue Scale - Raynaud's, Mean / SHAQ Visual Analogue Scale - Raynaud's, Median: Baseline; for SHAQ Alternative Disability Index, Mean / SHAQ Alternative Disability Index, Median / SHAQ Standard Disability Index, Mean / SHAQ Standard Disability Index, Median: Patients with Diagnosis of SSc
Summary of the method: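 Participants with SSc-RP completed the SHAQ at screening and each in-clinic visit. Standard and alternative disability indices (eight categories, 0–3; standard adjusts for aids/assistance) plus Raynaud's VAS on interference over the past 7 days. Reported as absolute change from baseline to end of each dosing period.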

[1] = Any Cilnidipine (N = 14), Day 12, Modified ITT, SSc patients, Part A
[2] = Any Cilnidipine (N = 14), Day 12, Modified ITT, SSc patients, Part A, Subject 01-110 Day 12 score excluded
[3] = Any Cilnidipine (N = 17), Day 12, PP Population Part A, SSc patients
[4] = Any Cilnidipine (N = 17), PP Population Part A, SSc patients
[5] = Cilnidipine 10 mg (N = 4), PP Population Part A
[6] = Cilnidipine 20 mg (N = 4), PP Population Part A
[7] = Pooled Cilnidipine 10 mg and Cilnidipine 10 mg + Tadalafil 5 mg (N = 9), PP Population Part A
[8] = Pooled Cilnidipine 20 mg and Cilnidipine 20 mg + Tadalafil 5 mg (N = 8), PP Population Part A
[9] = Pooled Cilnidipine (N = 8), PP Population Part A
[10] = Cilnidipine 10 mg (N = 3), patients with diagnosis of SSc, sensitivity analysis, Modified ITT, Part A
[11] = Cilnidipine 10 mg (N = 4), Modified ITT, Part A
[12] = Cilnidipine 10 mg, Day 12, PP Population Part A, SSc patients

**Q.** What does the source list for `COCCOC(=O)C1=C(C)NC(C)=C(C(=O)OC/C=C/c2ccccc2)C1c1cccc([N+](=O)[O-])c1` (centres unmarked) [Cilnidipine, cilnidipine]?
**A.** SHAQ VAS- Breathing problems Change (20 mg): −0.83; SHAQ VAS- Raynaud's Change (20 mg): −1.27; SHAQ VAS- overall disease severity Change (20 mg): −1.63; SHAQ VAS-Pain (20 mg): −1.1; SHAQ Alternative Disability Index: Change from Baseline, Mean [1]: −0.016; SHAQ Alternative Disability Index: Change from Baseline, Median [1]: −0.031; SHAQ Alternative Disability Index: In-Clinic Visit (Day 12), Mean [1]: 0.430; SHAQ Alternative Disability Index: In-Clinic Visit (Day 12), Median [1]: 0.250; SHAQ Alternative Disability Index: Percent Change from Baseline, Mean [1]: 17.01%; SHAQ Alternative Disability Index: Percent Change from Baseline, Median [1]: −11.11%; SHAQ Standard Disability Index: Change from Baseline, Mean [1]: −0.050; SHAQ Standard Disability Index: Change from Baseline, Median [1]: 0.000; SHAQ Standard Disability Index: In-Clinic Visit (Day 12), Mean [1]: 0.521; SHAQ Standard Disability Index: In-Clinic Visit (Day 12), Median [1]: 0.250; SHAQ Standard Disability Index: Percent Change from Baseline, Mean [1]: 2.96%; SHAQ Standard Disability Index: Percent Change from Baseline, Median [1]: 0.00%; SHAQ Visual Analogue Scale - Finger Ulcers: Change from Baseline, Mean [1]: −0.623; SHAQ Visual Analogue Scale - Finger Ulcers: Change from Baseline, Median [1]: −0.100; SHAQ Visual Analogue Scale - Finger Ulcers: In-Clinic Visit (Day 12), Mean [1]: 0.900; SHAQ Visual Analogue Scale - Finger Ulcers: In-Clinic Visit (Day 12), Median [1]: 0.200; SHAQ Visual Analogue Scale - Finger Ulcers: Percent Change from Baseline, Mean [1]: −33.91%; SHAQ Visual Analogue Scale - Finger Ulcers: Percent Change from Baseline, Median [1]: −36.11%; SHAQ Visual Analogue Scale - Intestinal Problems: Change from Baseline, Mean [1]: −0.404; SHAQ Visual Analogue Scale - Intestinal Problems: Change from Baseline, Median [1]: 0.000; SHAQ Visual Analogue Scale - Intestinal Problems: In-Clinic Visit (Day 12), Mean [1]: 1.225; SHAQ Visual Analogue Scale - Intestinal Problems: In-Clinic Visit (Day 12), Median [1]: 0.650; SHAQ Visual Analogue Scale - Intestinal Problems: Percent Change from Baseline, Mean [1]: 0.28%; SHAQ Visual Analogue Scale - Intestinal Problems: Percent Change from Baseline, Median [1]: −10.00%; SHAQ Visual Analogue Scale - Overall Disease Severity: Change from Baseline, Mean [1]: −0.904; SHAQ Visual Analogue Scale - Overall Disease Severity: Change from Baseline, Median [1]: −1.300; SHAQ Visual Analogue Scale - Overall Disease Severity: In-Clinic Visit (Day 12), Mean [1]: 2.146; SHAQ Visual Analogue Scale - Overall Disease Severity: In-Clinic Visit (Day 12), Median [1]: 1.300; SHAQ Visual Analogue Scale - Overall Disease Severity: Percent Change from Baseline, Mean [1]: −30.92%; SHAQ Visual Analogue Scale - Overall Disease Severity: Percent Change from Baseline, Median [1]: −41.67%; SHAQ Visual Analogue Scale - Pain: Change from Baseline, Mean [1]: −0.492; SHAQ Visual Analogue Scale - Pain: Change from Baseline, Median [1]: −0.500; SHAQ Visual Analogue Scale - Pain: In-Clinic Visit (Day 12), Mean [1]: 2.236; SHAQ Visual Analogue Scale - Pain: In-Clinic Visit (Day 12), Median [1]: 2.150; SHAQ Visual Analogue Scale - Pain: Percent Change from Baseline, Mean [1]: −23.84%; SHAQ Visual Analogue Scale - Pain: Percent Change from Baseline, Median [1]: −21.87%; SHAQ Visual Analogue Scale - Raynaud's: Change from Baseline, Mean [1]: −0.538; SHAQ Visual Analogue Scale - Raynaud's: Change from Baseline, Median [1]: −0.300; SHAQ Visual Analogue Scale - Raynaud's: In-Clinic Visit (Day 12), Mean [1]: 1.798; SHAQ Visual Analogue Scale - Raynaud's: In-Clinic Visit (Day 12), Median [1]: 1.250; SHAQ Visual Analogue Scale - Raynaud's: Percent Change from Baseline, Mean [1]: −18.26%; SHAQ Visual Analogue Scale - Raynaud's: Percent Change from Baseline, Median [1]: −33.33%; SHAQ Visual Analogue Scale - Breathing Problems: Change from Baseline, Mean [2]: −0.015; SHAQ Visual Analogue Scale - Breathing Problems: Change from Baseline, Median [2]: 0.000; SHAQ Visual Analogue Scale - Breathing Problems: In-Clinic Visit (Day 12), Mean [2]: 1.515; SHAQ Visual Analogue Scale - Breathing Problems: In-Clinic Visit (Day 12), Median [2]: 0.400; SHAQ Visual Analogue Scale - Breathing Problems: Percent Change from Baseline, Mean [2]: 51.98%; SHAQ Visual Analogue Scale - Breathing Problems: Percent Change from Baseline, Median [2]: −21.33%; SHAQ Standard Disability Index, Change from Baseline, Mean [3]: −0.041; SHAQ Standard Disability Index, Change from Baseline, Median [3]: 0.000; SHAQ Standard Disability Index, Percent Change from Baseline, Mean [3]: 3.27%; SHAQ Standard Disability Index, Percent Change from Baseline, Median [3]: 0.00%; SHAQ Standard Disability Index, In-Clinic Visit (Day 12), Mean [4]: 0.539; SHAQ Standard Disability Index, In-Clinic Visit (Day 12), Median [4]: 0.250; SHAQ Alternative Disability Index, Mean [5]: 0.500; SHAQ Alternative Disability Index, Median [5]: 0.438; SHAQ Standard Disability Index, Mean [5]: 0.656; SHAQ Standard Disability Index, Median [5]: 0.563; SHAQ Alternative Disability Index, Mean [6]: 0.219; SHAQ Alternative Disability Index, Median [6]: 0.250; SHAQ Standard Disability Index, Mean [6]: 0.344; SHAQ Standard Disability Index, Median [6]: 0.375; SHAQ Visual Analogue Scale - Breathing Problems, Mean [7]: 1.511; SHAQ Visual Analogue Scale - Breathing Problems, Median [7]: 0.800; SHAQ Visual Analogue Scale - Finger Ulcers, Mean [7]: 0.656; SHAQ Visual Analogue Scale - Finger Ulcers, Median [7]: 0.200; SHAQ Visual Analogue Scale - Intestinal Problems, Mean [7]: 2.444; SHAQ Visual Analogue Scale - Intestinal Problems, Median [7]: 1.100; SHAQ Visual Analogue Scale - Overall Disease Severity, Mean [7]: 3.044; SHAQ Visual Analogue Scale - Overall Disease Severity, Median [7]: 1.900; SHAQ Visual Analogue Scale - Pain, Mean [7]: 3.278; SHAQ Visual Analogue Scale - Pain, Median [7]: 3.100; SHAQ Visual Analogue Scale - Raynaud's, Mean [7]: 2.733; SHAQ Visual Analogue Scale - Raynaud's, Median [7]: 1.400; SHAQ Visual Analogue Scale - Breathing Problems, Mean [8]: 1.175; SHAQ Visual Analogue Scale - Breathing Problems, Median [8]: 1.000; SHAQ Visual Analogue Scale - Finger Ulcers, Mean [8]: 1.986; SHAQ Visual Analogue Scale - Finger Ulcers, Median [8]: 0.100; SHAQ Visual Analogue Scale - Intestinal Problems, Mean [8]: 0.813; SHAQ Visual Analogue Scale - Intestinal Problems, Median [8]: 0.650; SHAQ Visual Analogue Scale - Overall Disease Severity, Mean [8]: 3.363; SHAQ Visual Analogue Scale - Overall Disease Severity, Median [8]: 2.950; SHAQ Visual Analogue Scale - Pain, Mean [8]: 2.800; SHAQ Visual Analogue Scale - Pain, Median [8]: 2.900; SHAQ Visual Analogue Scale - Raynaud's, Mean [8]: 2.700; SHAQ Visual Analogue Scale - Raynaud's, Median [8]: 1.700; SHAQ Visual Analogue Scale - Breathing Problems, Mean [9]: 1.600; SHAQ Visual Analogue Scale - Breathing Problems, Median [9]: 0.700; SHAQ Visual Analogue Scale - Finger Ulcers, Mean [9]: 1.171; SHAQ Visual Analogue Scale - Finger Ulcers, Median [9]: 0.300; SHAQ Visual Analogue Scale - Intestinal Problems, Mean [9]: 1.838; SHAQ Visual Analogue Scale - Intestinal Problems, Median [9]: 0.650; SHAQ Visual Analogue Scale - Overall Disease Severity, Mean [9]: 2.925; SHAQ Visual Analogue Scale - Overall Disease Severity, Median [9]: 2.950; SHAQ Visual Analogue Scale - Pain, Mean [9]: 2.250; SHAQ Visual Analogue Scale - Pain, Median [9]: 2.150; SHAQ Visual Analogue Scale - Raynaud's, Mean [9]: 2.338; SHAQ Visual Analogue Scale - Raynaud's, Median [9]: 1.800; SHAQ Standard Disability Index: Baseline, Mean [10]: 0.875; SHAQ Standard Disability Index: Baseline, Median [10]: 1.125; SHAQ Standard Disability Index: Change from Baseline, Mean [10]: 0.000; SHAQ Standard Disability Index: Change from Baseline, Median [10]: 0.000; SHAQ Standard Disability Index: Day 12, Mean [10]: 0.875; SHAQ Standard Disability Index: Day 12, Median [10]: 1.125; SHAQ Standard Disability Index: Percent Change from Baseline, Mean [10]: 0.00%; SHAQ Standard Disability Index: Percent Change from Baseline, Median [10]: 0.00%; SHAQ Overall Severity: Baseline, Mean [11]: 2.725; SHAQ Overall Severity: Baseline, Median [11]: 1.900; SHAQ Overall Severity: Change from Baseline, Mean [11]: −0.900; SHAQ Overall Severity: Change from Baseline, Median [11]: −0.950; SHAQ Overall Severity: Day 12, Mean [11]: 1.825; SHAQ Overall Severity: Day 12, Median [11]: 1.050; SHAQ Overall Severity: Percent Change from Baseline, Mean [11]: −56.96%; SHAQ Overall Severity: Percent Change from Baseline, Median [11]: −44.12%; SHAQ Visual Analogue Scale - Breathing Problems, Change from Baseline, Mean [12]: −0.300; SHAQ Visual Analogue Scale - Breathing Problems, Change from Baseline, Median [12]: 0.000; SHAQ Visual Analogue Scale - Breathing Problems, Percent Change from Baseline, Mean [12]: −16.00%; SHAQ Visual Analogue Scale - Breathing Problems, Percent Change from Baseline, Median [12]: −16.00%
